What was measured:
Assay type in all cases: in vivo, Arabidopsis thaliana
6-week-old dwf4 plants = assay: Treatment of soil-grown mature dwf4 plants with BR intermediates and BL (pedicel elongation); conditions: 10^−6 M, compared with CT and TE at 10^−5 M
Method: To determine whether the results of the seedling feeding experiments could be applicable to soil-grown mature plants, 6-week-old dwf4 plants were treated with BR intermediates and BL. Concentrations of applied intermediates were adjusted empirically to optimize responses. Consistent with the results obtained from the seedlings experiments, only 22α-hydroxylated compounds can rescue the dwf4 phenotype. The elongation response was only observed in the young tissues of the inflorescence, regardless of whether the BRs were applied locally or sprayed over the entire plant. In contrast to the striking elongation of the peduncles and pedicels, fertility was not restored by BR treatment. The sterility in dwf4 is hypothesized to be mechanical, which means that the filaments are shorter than the carpels such that the pollen is shed onto the ovary walls rather than onto the stigmatic surface. In fact, if dwf4 plants are hand pollinated using […], fertility increases.

dwf4 seedlings = assay: Feeding of BR biosynthetic intermediates to dwf4 seedlings in liquid media (rescue, dose-response); conditions: for rescue of the light-grown dwf4 phenotype: liquid media; for response of dwf4 seedlings in dose-response experiment in the dark: dark-grown, 6-oxoCN 10^−8 to 3×10^−6 M, 6-deoxoCT high concentrations
Method: In view of the results described above, we hypothesized that DWF4 mediates one or more of several steroid hydroxylation steps in the BR biosynthetic pathway. To test this, dwf4 was grown on all of the available biosynthetic intermediates in the BR biosynthetic pathways and examined to ascertain which intermediates could rescue the dwarf phenotype. In addition to the intermediates belonging to the early C-6 oxidation and late C-6 oxidation pathways (Choi et al. (1997), supra), 22α-hydroxycampesterol (22-OHCR), 6α-hydroxycastasterone (6-OHCT) (Takatsuto et al. (1997) J. Chem. Res. (synop.) 11:418-419), and […] (S. Takatsuto, T. Watanabe, T. Noguchi, and S. Fujioka, unpublished data) were synthesized and tested.
Germinated seedlings were transferred to media supplemented with one of the intermediates or BL to pinpoint the step catalyzed by DWF4. […] In addition, the rescued seedlings were less green than the dwarfs. These experiments were conducted in liquid media. Feeding experiments performed in the dark yielded similar results.
However, on CT the overall morphology of dwf4 was essentially rescued to wild-type phenotype at 3×10^−7 M and higher, whereas with 6-deoxoCT, rescue occurred with as little as 10^−7 M and may have even been inhibitory at higher concentrations. Of particular interest is the more dramatic response of the epicotyls versus the smaller response of the hypocotyls to CT. This same phenomenon was true for seedlings treated with >10^−7 M 6-deoxoCT.
A higher concentration of CT for dark-grown seedlings, compared with light-grown seedlings, 3×10^−6 M (FIG. 5B), was required to convert the hypocotyl to a length similar to that of the wild type.

wild-type seedlings = assay: Hypocotyl and root length of wild-type seedlings supplemented with epi-BL; conditions: light-grown wild type, 10^−6 M epi-BL, 12 days
Method: To compare the phenotypic effects resulting form the endogenous and exogenous addition of BRs, the length of roots and hypocotyls of 16 seedlings of dwf4, wild-type controls, wild-type plants supplemented with 10^−6 M epi-BL, and two independent AOD4 lines, grown for 12 days in the light or dark was measured. […] These characteristic responses of wild-type plants to epi-BL treatment were similar in two independent AOD4 lines. […] Inhibition of root growth was also obvious in the AOD4 lines. Furthermore the increased hypocotyl length and reduced root length were consistently observed in 15 independent transformants of tobacco (TOD4) harboring a pOD4 construct.

DWF4 promoter (D4GL) = assay: DWF4-promoter:GUS (D4GL) activity in seedlings supplied with hormone
From the text: Two promoter constructs were used for the DWF4-promoter:GUS(D4G) analysis. For promoter fusions, polymerase chain reaction (PCR) products spanning 1.1 kb DNA upstream of the translation initiation site were amplified using primers D4XLINIT (5′-[…]-3′) (SEQ ID NO:16) and a T7 primer (5′[…]-3′) (SEQ ID NO:17). For template for PCR, a DWF4 genomic clone subcloned into pBluescript SK-vector (Stratagene La Jolla, Calif.) was used as described herein. The PCR products were restricted with SalI and BamHI, and ligated into the same restriction site of a promoterless GUS vectors pBI101; this 1.1 kb promoter:GUS construct as named pD4GL. For the pD4GS construct, pD4GL was digested with HindIII, the small restriction fragment was removed, and the remaining vector with the partial promoter was self-ligated. The constructs were introduced into Agrobacterium strain GV3101 through electroporation.
For histochemical analysis of the D4GL plants, seeds were plated on M&S plates and grown in the dark and light. Seedlings were harvested at the designated dates and stained overnight using a substrate mixture (0.1 M NaPO4, pH 7, 10 mM EDTA, 0.5 mM K3Fe(CN)6, 0.5 mM K4FE(CN)6, 1 mM X-glucuronide, and 0.1% Triton X-100). Seedlings cleared with 90% ethanol were rehydrated before taking pictures using a Stemi SV11 dissecting microscope (Zeiss, N.Y.).
Since DWF4 is proposed to be a key enzyme in the BR biosynthetic pathway, DWF4 transcription could be regulated by an end-product feedback mechanism. To this end, D4GL was expressed in different genetic backgrounds including two BR deficient mutants, dwf7-1 and dwf8-1, and a BR-enriched line, AOD4. GUS activity was increased in dwf7-1 and dwf8-1 but decreased in AOD4 lines. DWF7 is a C-5 desaturase that acts in the sterol specific part of the pathway. D4GL activity in dwf7-1 was found in the same tissues as wild type but, dwf8-1 is defective in a BR biosynthetic step downstream of CPD. […]

[1] = tested on: wild-type and dwf4 plants; assay: GA response of soil-grown plants sprayed with GA (inflorescence stem length)
Method: (§1) Gibberellic acid (GA) response was assayed on plants grown individually in 5.7-cm pots. Once inflorescences reached 1 to 2 mm in height, they were sprayed weekly with 1 mM GA3 (Sigma). Control plants were sprayed with water. One week after the third spraying, plants were collected, and the length of the main stem was measured between the top of the rosette and the base of the most distal pedicel; 13 to 18 plants of each line were measured per treatment. Auxin response was tested by growing seedlings for 10 days under 16 hr of light on vertically oriented agar plates containing various concentrations of 2,4-D (Gibco, Grand Island, N.Y.). Genetic interaction with the hy2 mutation was tested by growing seedlings under continuous light for 7 days. Brassinolide (BL) response was determined in liquid culture, as described by Clouse et al. (1993) supra, except that three or four seedlings were grown in each well of a 24-well culture plate for 7 days. Measurements were taken for 10 to 20 seedlings for each genotype and condition, under a dissection microscope fitted with an ocular micrometer.
Of the endogenous (hormonal) signals that might be deficient in dwarf plants, an obvious candidate is GA, because gibberellin-deficient mutants are shorter in stature than are the wild-type plants (Koommeef and Van der Veen, supra). […]

[2] = tested on: wild-type and dwf4 seedlings; assay: GA response of seedlings germinated on GA (hypocotyl elongation)
Method: The conditions used for plant growth were essentially as described previously (Feldmann (1991) Plant J. 1:71-82; Forsthoefel et al. (1992) Aust. J. Plant Physiol. 19:353-366), except that agar-solidified medium contained 0.5% sucrose. Seedlings up to 2 weeks of age ([…] of age for dark-growth experiments) were grown on 0.9% agar-solidified medium containing 1×Murashige and Skoog 1962 salts (Murashige, T., and Skoog, F. (1962) Physiol. Plant, 15:473-497) and 0.5% sucrose (w/v) and cold treated (4° C.) for 2 days in the dark before transfer to the light (24 hr light; 80 μmol M^−2 sec^−1); older plants were grown in potting soil. The plates were sealed with Parafilm (American National Can Co., Chicago, Ill.) for the entire experiment. For nucleic acid extraction, genetic analysis, and other experiments in which mature plants were required, seeds were sown on Metromix 350 (Grace Sierra, Milpitas, Calif.) presoaked with distilled water. The pots were covered with plastic wrap and cold treated (4° C.) for two days before transfer to a growth chamber (16:8, light [240 μmol m^−2 sec^−1]:dark; 22 and 21° C., respectively, and 75 to 90% humidity). The plastic wrap was removed 5 days after germination, and the pots were subirrigated in distilled water as required. Germination of seeds for dark growth experiments was induced by overnight exposure of the seeds to light immediately after removing the plates from incubation at 4° C. The dwf4-1 and dwf4-2 mutations were in the Arabidopsis thaliana ecotype Wassilewskija (Ws-2) background; the dwf4-3 and dwf4-4 mutations were in the Enkheim (En-2) background.
Of the endogenous (hormonal) signals that might be deficient in dwarf plants, an obvious candidate is GA, because gibberellin-deficient mutants are shorter in stature than are the wild-type plants (Koommeef and Van der Veen, supra). Our results, however, indicate that dwf4 is not defective in the synthesis of gibberellins. […] Similar results were obtained when soil-grown plants were sprayed with 1 mM GA once inflorescences first became visible: dwf4 inflorescence stems elongated by only 28% above the untreated controls, whereas those of the wild type elongated by 45% above the untreated controls. Mutants that owe their reduced stature to decreased levels of endogenous gibberellins can be fully rescued by added hormone (Koornneef and Van der Veen, supra; Talon et al., supra). In addition, dwf4 seeds germinate in the absence of exogenously supplied GA.

[3] = tested on: wild-type and dwf4 seedlings; assay: Auxin response of seedlings on vertically oriented agar plates with 2,4-D
Method: as §1
Auxin can also stimulate cell elongation. This effect is especially visible in young seedlings (Klee and Estelle, supra). […] Higher concentrations of auxin were inhibitory for both wild-type and dwf4 seedlings, and lower concentrations had no effect. In view of the inhibition of root growth, it is clear that dwf4 is not auxin resistant; rather, its elongation response is compromised.

[4] = light-grown seedlings, dose-response

CC(C)[C@H](C)[C@@H](O)[C@H](O)[C@@H](C)[C@H]1CC[C@H]2[C@@H]3CC[C@H]4C[C@@H](O)CC[C@]4(C)[C@H]3CC[C@]12C [6-deoxoTE, 6-deoxoteasterone]
sensitivity of dwf4 pedicels (6-week-old dwf4 plants): more sensitive

CC(C)[C@H](C)[C@@H](O)[C@H](O)[C@@H](C)[C@H]1CC[C@H]2[C@@H]3C[C@H](O)[C@H]4C[C@H](O)[C@H](O)C[C@]4(C)[C@H]3CC[C@]12C [6-OHCT, 6α-hydroxycastasterone]
rescue of the light-grown dwf4 phenotype (dwf4 seedlings; light-grown seedlings): rescued

CC(C)[C@H](C)C[C@H](O)[C@@H](C)[C@H]1CC[C@H]2[C@@H]3CC[C@H]4C[C@@H](O)CC[C@]4(C)[C@H]3CC[C@]12C [6-deoxoCT, 6-deoxocathasterone]
response of dwf4 seedlings in dose-response experiment in the dark (dwf4 seedlings): caused dramatic elongation but were less effective at rescuing dwf4 hypocotyls to wild-type phenotype | concentration at which dwf4 overall morphology is rescued to wild-type phenotype (dwf4 seedlings; [4]): ≥ 10^−7 M | concentrations at which seedlings displayed inhibition in hypocotyl and root elongation and cotyledon and leaf expansion (dwf4 seedlings; [4]): > 10^−7 M | rescue of the light-grown dwf4 phenotype (dwf4 seedlings; light-grown seedlings): rescued | sensitivity of dwf4 pedicels (6-week-old dwf4 plants): more sensitive

CC(C)[C@H](C)CC[C@@H](C)[C@H]1CC[C@H]2[C@@H]3CC(=O)[C@H]4C[C@@H](O)CC[C@]4(C)[C@H]3CC[C@]12C [6-oxoCN, 6-oxocampestanol]
response of dwf4 seedlings in dose-response experiment in the dark (dwf4 seedlings): failed to respond | response of dwf4 seedlings in dose-response test (dwf4 seedlings; light-grown, even at high concentrations (3×10^−6 M)): failed to respond

CC(C)[C@@H](C)[C@@H](O)[C@H](O)[C@@H](C)[C@H]1CC[C@H]2[C@@H]3COC(=O)[C@H]4C[C@H](O)[C@H](O)C[C@]4(C)[C@H]3CC[C@]12C [epi-BL, 24-epibrassinolide]
hypocotyl length (wild-type seedlings): elongated hypocotyls | root length (wild-type seedlings): shorter than untreated control plants | GUS activity of D4GL plants (DWF4 promoter (D4GL); 10^−6 M epi-BL, tissues normally stained in untreated controls): greatly reduced GUS activity

C=C1C[C@]23C[C@@]1(O)CC[C@H]2[C@@]12C=C[C@H](O)[C@@](C)(C(=O)O1)[C@H]2[C@@H]3C(=O)O [GA, Gibberellic acid]
inflorescence stem elongation above the untreated controls ([1]; dwf4, soil-grown plants sprayed with 1 mM GA): 28% | inflorescence stem elongation above the untreated controls ([1]; wild type, soil-grown plants sprayed with 1 mM GA): 45% | GUS staining in shoots and roots of D4GL plants (DWF4 promoter (D4GL); 10^−4 M GA3): did not display an increase in GUS staining | hypocotyl length of D4GL plants (DWF4 promoter (D4GL); 10^−4 M GA3): longer than controls | hypocotyl elongation response to GA ([2]; dwf4 seedlings germinated on 10^−5 M GA): responded minimally, if at all | hypocotyl elongation response to GA ([2]; dwf4 seedlings, 10^−4 M compared with 10^−5 M GA): essentially saturated for elongation | hypocotyl elongation response to GA ([2]; wild-type seedlings at 10^−4 M GA): elongated slightly more than at 10^−5 M | hypocotyl elongation response to GA ([2]; wild-type seedlings germinated on 10^−5 M GA): demonstrated an elongation response

O=C(O)COc1ccc(Cl)cc1Cl [2,4-D]
hypocotyl elongation ([3]; concentrations lower than 10^−8 M): no effect | root growth ([3]; wild-type and dwf4 seedlings, 10 days, all concentrations assayed): inhibition of root growth was evident | hypocotyl elongation ([3]; wild-type and dwf4 seedlings, concentrations higher than 10^−8 M): inhibitory

From patent US7935532B2, “DWF4 polynucleotides, polypeptides and uses thereof” (Arizona Board of Regents for and on behalf of Arizona State …, priority 1999, dated 2011)
